Here are results for three compounds from patent EP0596112A1, “NOVEL MACROLIDE COMPOUND AND PRODUCTION THEREOF” (YAMANOUCHI PHARMACEUTICAL CO. LTD., priority 1991, dated 1992).

Converted amounts (≈) assume the structure as drawn.

What is called MIC is the smallest concentration in the dilution series that meets the test's criterion for growth inhibition. Lower therefore signals greater potency.

The nature of series [1]: Solubility (physicochemical properties).
Series [2] concerns Staphylococcus epidermidis IID866. Briefly: In vitro antibacterial activity (MIC), agar plate dilution method using Müller-Hinton medium. Format: cell-based. As for the experimental part:
(§1) In vitro antibacterial activity (MIC) The antibacterial spectrum of the macrolide compound of the present invention was determined by the agar plate dilution method using Müller-Hinton medium which is commonly used for this purpose.

In series [3] the test system is Serratia marcescens IID620. Described as above. Type of series: cell-based. As for the experimental part:
as §1

Series [4] deals with Streptococcus pyogenes Cook. The description is as above. Format: cell-based. On the procedure: as §1
For series [5], the system named is Enterococcus faecalis IID682. The description is as above. Type of series: cell-based. On the procedure: as §1
Series [6] concerns Proteus vulgalis OX-19. The description is as above. Type of series: cell-based. As for the experimental part: as §1
In series [7] the test system is Escherichia coli 0-1. The description is as above. Type of series: cell-based. As to conditions: 01. On the procedure: as §1
The test system of series [8] is Klebsiella pneumoniae ATTCC10031. The series is described as above. Format: cell-based. As for the experimental part:
as §1

Series [9] relates to Staphylococcus aureus FDA 209P. The series is described as above. Type of series: cell-based. As to conditions: FDA209P. As for the experimental part:
as §1

The test system of series [10] is Streptococcus pneumoniae IID552. Described as above. Format: cell-based. On the procedure: as §1
Series [11] deals with Pseudomonas aeruginosa IID5142. Described as above. Format: cell-based. As for the experimental part:
as §1

The subject of series [12] is Staphylococcus aureus FDA 209P JC-1. The description is as above. Format: cell-based. The settings on record: FDA209P. On the procedure:
as §1

The mark [13] stands for this setting: in methanol, ethanol, acetone, ethyl acetate, benzene, toluene and chloroform.

As for `COC1C(OCC(C)C2OC(=O)C(C)C(OC3CC(C)(O)C(O)C(C)O3)C(C)C(OC3OC(C)CC(=O)C3O)C(C)CC(C)(O)C(=O)C(C)C(OC(=O)CC(C)C)C2C)OC(C)C(O)C1OC` (stereo not drawn) [YL-02107Q substance], the Solubility entry in series [1] (setting [13]) is recorded as “Soluble”; in [1] (in water and hexane), “only sparingly soluble”. Moreover, the minimal inhibitory concentration (MIC) in [2] is 0.78 µg/mL (≈ 0.81 µM); in series [3], over 100 µg/mL; in series [4] it was 0.39 µg/mL (≈ 0.405 µM); in series [5], 1.56 µg/mL (≈ 1.62 µM); in series [6], over 100 µg/mL; in [7] it was over 100 µg/mL. Also, the MIC in series [8] is over 100 µg/mL; in series [9], 0.78 µg/mL (≈ 0.81 µM); in [10], 3.13 µg/mL (≈ 3.25 µM); in series [11], over 100 µg/mL.
For the compound `COC1C(OCC(C)C2OC(=O)C(C)C(OC3CC(O)C(O)C(C)O3)C(C)C(OC3OC(C)CC(=O)C3O)C(C)CC(C)(O)C(=O)C(C)C(OC(=O)CC(C)C)C2C)OC(C)C(O)C1OC` (stereo not drawn) [YL-02107Q-B substance], the Solubility entry in [1] (setting [13]) is on record as “Soluble”; in series [1] (in water and hexane), “only sparingly soluble”. The minimal inhibitory concentration (MIC) in [2] was 3.13 µg/mL (≈ 3.3 µM); in series [3] it was over 50 µg/mL; in series [4], 0.78 µg/mL (≈ 0.822 µM); in [12], 3.13 µg/mL (≈ 3.3 µM); in series [5], 25 µg/mL (≈ 26.3 µM); in [6], over 50 µg/mL. The MIC in series [7] was over 50 µg/mL; in series [8], over 50 µg/mL; in [10], 50 µg/mL (≈ 52.7 µM); in [11] it was over 50 µg/mL.
Consider `COC1C(OCC(C)C2OC(=O)C(C)C(OC3CC(C)(O)C(O)C(C)O3)C(C)C(OC3OC(C)CC(=O)C3O)C(C)CC(C)(O)C(=O)C(C)C(O)C2C)OC(C)C(O)C1OC` (stereo not drawn) [YL-02107Q-D substance], for which the Solubility result in series [1] (setting [13]) is “Soluble”; in [1] (in water and hexane), “only sparingly soluble”. Besides, the MIC in series [2] is 1.56 µg/mL (≈ 1.77 µM); in [3], over 50 µg/mL; in [4], 0.78 µg/mL (≈ 0.887 µM); in [12] it was 3.13 µg/mL (≈ 3.56 µM); in series [5], over 50 µg/mL; in series [6], over 50 µg/mL. In addition, the minimum inhibitory concentration (MIC) in series [7], in [8], in [10] and in [11] was over 50 µg/mL each time.
